Consider 9 compounds from PubChem BioAssay (NCI).

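Step 1: Grow cells in 96-well plates. Step 2: Expose to compound for 48 hours at 5 concentrations. Step 3: Interpolate endpoints linearly; if unreached, use highest concentration. Abbreviation: GI50, concentration required for 50% inhibition of growth. TGI denotes the concentration required for complete inhibition of growth.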

Among the test systems are SK-MEL-5 melanoma; OVCAR-5 ovarian; SN12C renal; COLO 205 colon; HCT-116 colon; MCF7 breast; UACC-62 melanoma; OVCAR-3 ovarian; HL-60(TB) leukemia; UO-31 renal.
Assay in all cases: NCI-60 cell line screen, 48 h

`O=S(=O)(O)ONC1=NCCN1`: the GI50 in the experiment with SK-MEL-5 melanoma is > 100 µM; with OVCAR-5 ovarian it was > 100 µM; in the experiment on SN12C renal it was > 100 µM; with COLO 205 colon it was > 100 µM; in the experiment with HCT-116 colon, 65.1 µM; in the experiment on MCF7 breast it was 16.1 µM. For the same compound, the GI50 is > 100 µM with UACC-62 melanoma, > 100 µM with OVCAR-3 ovarian, > 100 µM in the experiment on HL-60(TB) leukemia and 29.1 µM in the experiment on UO-31 renal. In addition, the TGI with SK-MEL-5 melanoma, with OVCAR-5 ovarian, in the experiment on SN12C renal, with COLO 205 colon, in the experiment with HCT-116 colon and with MCF7 breast was > 100 µM throughout. Also, the TGI in the experiment with UACC-62 melanoma, with OVCAR-3 ovarian, in the experiment with HL-60(TB) leukemia and in the experiment with UO-31 renal was > 100 µM in each case.

On to `O=C1c2ccccc2-c2c1c1ccccc1c(=O)n2-c1ccccc1`, for which the TGI was 52 µM in the experiment on SK-MEL-5 melanoma; > 100 µM with OVCAR-5 ovarian; > 100 µM in the experiment with SN12C renal; > 100 µM with COLO 205 colon; 26.8 µM in the experiment on HCT-116 colon; > 100 µM in the experiment on MCF7 breast. For the same compound, the TGI in the experiment on UACC-62 melanoma was > 54.2 µM; in the experiment with OVCAR-3 ovarian, 34 µM; in the experiment with HL-60(TB) leukemia, > 86.3 µM; in the experiment with UO-31 renal it was 23.5 µM.

Consider `O=[As]c1ccc(C(=O)c2ccc(Oc3ccccc3)cc2)cc1` (stereo not given), for which the GI50 in the experiment on SK-MEL-5 melanoma was 0.0539 µM; in the experiment with OVCAR-5 ovarian it was 0.129 µM; in the experiment on SN12C renal, 0.0407 µM; in the experiment with COLO 205 colon, 0.0494 µM; with HCT-116 colon it was 0.0415 µM; in the experiment with MCF7 breast, 0.0181 µM. Further, the GI50 with UACC-62 melanoma is 0.059 µM; with OVCAR-3 ovarian, 0.0243 µM; in the experiment with HL-60(TB) leukemia, 0.119 µM; with UO-31 renal, 0.0695 µM. The TGI was 0.174 µM with SK-MEL-5 melanoma; 0.264 µM with OVCAR-5 ovarian; 0.148 µM with SN12C renal; 0.169 µM in the experiment on COLO 205 colon; 0.152 µM in the experiment on HCT-116 colon; 0.0903 µM in the experiment with MCF7 breast. In addition, the TGI with UACC-62 melanoma was 0.185 µM; with OVCAR-3 ovarian, 0.0608 µM; in the experiment on HL-60(TB) leukemia it was 0.463 µM; in the experiment with UO-31 renal, 0.208 µM.

Take `OC(COc1cccc2ccccc12)CN1CCN(c2ccccc2Cl)CC1` (stereo not given): the GI50 with SK-MEL-5 melanoma was 15.2 µM; in the experiment on OVCAR-5 ovarian, 11.5 µM; in the experiment on SN12C renal it was 12.5 µM; in the experiment on COLO 205 colon, 11.9 µM; with HCT-116 colon, 10.8 µM; in the experiment with MCF7 breast it was 14.7 µM. In addition, the GI50 is 12.2 µM in the experiment with UACC-62 melanoma, 13.9 µM with OVCAR-3 ovarian, 12.7 µM with HL-60(TB) leukemia and 4.17 µM in the experiment with UO-31 renal. Further, the TGI in the experiment on SK-MEL-5 melanoma was 28.9 µM; in the experiment with OVCAR-5 ovarian, 24.1 µM; in the experiment on SN12C renal it was 25.4 µM; with COLO 205 colon, 25 µM; with HCT-116 colon, 24.5 µM; with MCF7 breast, 28.3 µM. Also, the TGI came out at 24.8 µM in the experiment on UACC-62 melanoma, 27.6 µM in the experiment with OVCAR-3 ovarian, 44.2 µM in the experiment on HL-60(TB) leukemia and 18.7 µM in the experiment on UO-31 renal.

For `COc1cc(-c2nn(-c3ccc(NC(=O)c4cc(Cl)cc(Cl)c4)cc3)cc2-c2ccncc2)ccc1Cl`, the GI50 in the experiment on SK-MEL-5 melanoma is 12 µM; in the experiment on OVCAR-5 ovarian it was > 100 µM; with SN12C renal, > 100 µM; with COLO 205 colon it was 6.61 µM; in the experiment with HCT-116 colon, 16.3 µM; with MCF7 breast, > 100 µM. Besides, the GI50 in the experiment with UACC-62 melanoma is 4.58 µM; in the experiment with OVCAR-3 ovarian it was > 100 µM; with HL-60(TB) leukemia it was 5.82 µM; with UO-31 renal it was 6.86 µM. The TGI in the experiment on SK-MEL-5 melanoma, in the experiment on OVCAR-5 ovarian, with SN12C renal, with COLO 205 colon, in the experiment on HCT-116 colon and with MCF7 breast was > 100 µM in each case. Moreover, the TGI in the experiment on UACC-62 melanoma, in the experiment on OVCAR-3 ovarian, with HL-60(TB) leukemia and in the experiment with UO-31 renal was > 100 µM in each case.

With `COC(=O)[C@]12CC[C@@H](C)[C@H](C)[C@@H]1C1=CC[C@@H]3[C@@]4(C)CC(=O)[C@H](OC(=O)c5ccco5)[C@@]5(C)COC(=C45)C[C@@]3(C)[C@]1(C)CC2`, the GI50 was 0.414 µM in the experiment on SK-MEL-5 melanoma; > 100 µM with OVCAR-5 ovarian; 0.342 µM with COLO 205 colon; 0.337 µM in the experiment with HCT-116 colon; 0.741 µM in the experiment on MCF7 breast; 2.74 µM with OVCAR-3 ovarian. Further, the GI50 in the experiment with HL-60(TB) leukemia was 0.46 µM; in the experiment on UO-31 renal, 1.7 µM. The TGI with SK-MEL-5 melanoma was 2.54 µM; in the experiment on OVCAR-5 ovarian, > 100 µM; with COLO 205 colon, 2.93 µM; in the experiment on HCT-116 colon, > 100 µM; in the experiment on MCF7 breast, > 100 µM; in the experiment on OVCAR-3 ovarian, > 100 µM. For the same compound, the TGI in the experiment with HL-60(TB) leukemia and in the experiment with UO-31 renal was > 100 µM throughout.

As to `COc1cc(/C=N\O)nc(-c2ccccn2)c1`, the TGI with OVCAR-5 ovarian was > 100 µM; in the experiment with COLO 205 colon, > 100 µM; in the experiment on HCT-116 colon, > 100 µM; in the experiment on MCF7 breast, > 100 µM; with UACC-62 melanoma, 8.28 µM; in the experiment on OVCAR-3 ovarian it was > 100 µM. Also, the TGI in the experiment with HL-60(TB) leukemia was > 35.5 µM; with UO-31 renal, 3.13 µM.

`CCOC(=S)SCN1C(=O)c2ccccc2S1(=O)=O`: the GI50 in the experiment with SK-MEL-5 melanoma is 11.4 µM; with OVCAR-5 ovarian, 14.5 µM; in the experiment on SN12C renal, 21 µM; in the experiment on COLO 205 colon, 2.94 µM; in the experiment with HCT-116 colon, 13.6 µM; with MCF7 breast it was 44.1 µM. The GI50 in the experiment with UACC-62 melanoma is 20 µM; in the experiment on OVCAR-3 ovarian it was 0.0358 µM; in the experiment with UO-31 renal it was 14.3 µM. Further, the TGI is 24.4 µM in the experiment on SK-MEL-5 melanoma; 29.9 µM in the experiment on OVCAR-5 ovarian; 46.6 µM in the experiment on SN12C renal; 11.2 µM in the experiment on COLO 205 colon; 26.5 µM with HCT-116 colon; > 100 µM in the experiment on MCF7 breast. The TGI came out at 38 µM with UACC-62 melanoma, 17.3 µM in the experiment on OVCAR-3 ovarian and 29.4 µM with UO-31 renal.

Consider `Cc1cc(S(=O)(=O)Nc2nc3cc(Cl)ccc3o2)c(SCc2ccccc2)cc1Cl`, for which the GI50 in the experiment on SK-MEL-5 melanoma is 17.1 µM; in the experiment on OVCAR-5 ovarian, 22.7 µM; in the experiment on SN12C renal it was 22 µM; in the experiment with COLO 205 colon, 21.2 µM; in the experiment on HCT-116 colon, 18.7 µM; in the experiment on MCF7 breast it was 24.9 µM. The GI50 in the experiment with UACC-62 melanoma is 19.2 µM; in the experiment on OVCAR-3 ovarian, 22 µM; with UO-31 renal, 22.4 µM. For the same compound, the TGI in the experiment with SK-MEL-5 melanoma turned out to be 32 µM; with OVCAR-5 ovarian, 43 µM; in the experiment on SN12C renal, 49.5 µM; in the experiment with COLO 205 colon, 44.1 µM; in the experiment on HCT-116 colon, 42.7 µM; with MCF7 breast, 60.5 µM. Besides, the figures for the TGI in the experiment with UACC-62 melanoma, in the experiment on OVCAR-3 ovarian and in the experiment with UO-31 renal were 41.3 µM, 45.6 µM and 48.5 µM, respectively.
